These results are taken from ChEMBL document CHEMBL5154770, “Discovery of novel ataxia telangiectasia mutated (ATM) kinase modulators: Computational simulation, biological evaluation and cancer combinational chemotherapy study” (Eur J Med Chem, 2022).

pIC50: −log10 of the molar value. The source made the active and inactive calls. The rule behind the calls is not given here.

Broadly, the pIC50 is the IC50 on a negative log10 scale, so that one unit is a factor of ten. The term inhibition denotes the relative decrease from the control value, in per cent.

The test system of assay [1] is SW480. The experiment in a line: Antagonistic cytotoxicity against human SW480 cells assessed as combination index measured after 3 days in presence of 50 nM AZD0156 by SRB assay. The format is functional. The conditions noted are these: time 3 day. (In general: In SRB staining, fixed cells bind dye roughly in proportion to their protein.)
In assay [2] the test system is NCI-H1299. The experiment in a line: Synergistic cytotoxicity against human NCI-H1299 cells measured in presence of 5 uM KU60019 after 2 days by SRB assay. Format: functional, cell-based. The conditions noted are these: NCI-H1299, 48 h.
The test system of assay [3] is SW480. The experiment in a line: Antagonistic cytotoxicity against human SW480 cells measured after 3 days in presence of 5 uM 2(((24(2,4-dichlorobenzyl)oxy)naphthalen-1-yl)methyl)amino)ethan-1-ol by SRB assay. The format is functional, cell-based. The conditions noted are these: SW480, 72 h.
The target in assay [4] is T1, Serine-protein kinase ATM (Homo sapiens, UniProt Q13315). Description: Inhibition of ATM (unknown origin) assessed as decrease in phosphorylation of KAP1 at 25 uM measured in presence of 1 to 5 uM KU60019 by Western blot analysis. (In western blotting, separated proteins are transferred to a membrane and probed.)
Assay [5] addresses T1, Serine-protein kinase ATM. Description: Inhibition of ATM (unknown origin) assessed as decrease in phosphorylation of p21 at 25 uM measured in presence of 5 uM KU60019 by Western blot analysis.
Assay [6] relates to MCF7. The experiment in a line: Induction of cell cycle arrest in human MCF7 cells assessed as accumulation of cells at S-phase measured after 24 hrs by PI staining based flow cytometric analysis. Format: functional. The following applies: DDE = dose-dependent effect. Background: Flow cytometry measures light scatter and fluorescence of single cells or particles in a stream.

The test system of assay [7] is MCF7. The experiment in a line: Synergistic cytotoxicity against human MCF7 cells assessed as combination index measured after 6 days in presence of 5 uM KU55933 by SRB assay. The format is functional. The following applies: time 6 day.
In assay [8] the target is T1, Serine-protein kinase ATM. Description: Inhibition of ATM (unknown origin) assessed as decrease in phosphorylation of p21 at 25 uM measured in presence of 50 nM AZD0156 by Western blot analysis.
Assay [9] has as its system SW480. Description: Antagonistic cytotoxicity against human SW480 cells measured after 3 days in presence of 50 nM AZD0156 by SRB assay. The format is functional, cell-based. The conditions noted are these: SW480, 72 h.
Assay [10] addresses T1, Serine-protein kinase ATM. Description: Inhibition of ATM (unknown origin) assessed as decrease in phosphorylation of KAP1 at 25 uM measured in presence of 50 nM AZD0156 by Western blot analysis.
The subject of assay [11] is NCI-H1299. Description: Synergistic cytotoxicity against human NCI-H1299 cells measured in presence of 50 nM AZD0156 after 2 days by SRB assay. The format is functional, cell-based. The conditions noted are these: NCI-H1299, 48 h.
In assay [12] the test system is MCF7. The experiment in a line: Antagonistic cytotoxicity against human MCF7 cells assessed as combination index measured after 2 days in presence of 50 nM AZD0156 by SRB assay. Format: functional. The conditions noted are these: time 2 day.
Assay [13] has as its system MCF7. The experiment in a line: Additive cytotoxicity against human MCF7 cells assessed as combination index in presence of 10 uM 3-Chloro-4-methoxy-N-((4-(oxazolo[4,5-b]pyridin-2-yl)phenyl)carbamothioyl)benzamide measured after 6 days by SRB assay. Format: functional. The following applies: time 6 day.
Assay [14] deals with MCF7. The experiment in a line: Synergistic cytotoxicity against human MCF7 cells assessed as combination index measured after 6 days in presence of 50 nM AZD0156 by SRB assay. Format: functional. The conditions noted are these: time 6 day.
The test system of assay [15] is MCF7. The experiment in a line: Induction of apoptosis in human MCF7 cells at 62 nM in presence of 50 nM AZD0156 measured after 6 days by Annexin V-FITC/propidium iodide staining based flow cytometry analysis. The format is functional, cell-based. The conditions noted are these: time 6.0 day.
The test system of assay [16] is MCF7. The experiment in a line: cells. The following applies: Homo sapiens, MCF7, 144 h.
The subject of assay [17] is NCI-H1299. Description: Synergistic cytotoxicity against human NCI-H1299 cells assessed as combination index measured in presence of 50 nM AZD0156 after 2 days by SRB assay. Format: functional. The following applies: time 2 day.
Assay [18] deals with T1, Serine-protein kinase ATM. Description: Inhibition of ATM (unknown origin) assessed as decrease in phosphorylation of p21 at 25 uM measured in presence of 1 uM KU60019 by Western blot analysis.
The subject of assay [19] is MCF7. Description: Induction of cell cycle arrest in human MCF7 cells assessed as accumulation of cells at S-phase in presence of 5 uM KU60019 measured after 24 hrs by PI staining based flow cytometric analysis. The format is functional.
The test system of assay [20] is MCF7. The experiment in a line: Induction of apoptosis in human MCF7 cells at 62 nM in presence of 1 to 5 uM KU60019 measured after 6 days by Annexin V-FITC/propidium iodide staining based flow cytometry analysis. The format is functional, cell-based. The conditions noted are these: time 6.0 day.
Assay [21] relates to MCF7. The experiment in a line: cells. The following applies: Homo sapiens, MCF7, 144 h. The source holds these as a separate data set.
In assay [22] the test system is NCI-H1299. The experiment in a line: Synergistic cytotoxicity against human NCI-H1299 cells assessed as combination index measured in presence of 5 uM KU60019 after 2 days by SRB assay. Format: functional. The following applies: time 2 day.
In assay [23] the test system is MCF7. The experiment in a line: Induction of cell cycle arrest in human MCF7 cells assessed as decrease in accumulation of cells at G1-phase in presence of 5 uM KU60019 measured after 24 hrs by PI staining based flow cytometric analysis. The format is functional.
For assay [24], the target named is T1, Serine-protein kinase ATM. Description: Inhibition of ATM (unknown origin) assessed as decrease in phosphorylation of ATM at 25 uM measured in presence of 1 to 5 uM KU60019 by Western blot analysis.
Assay [25] deals with T1, Serine-protein kinase ATM. The experiment in a line: Inhibition of ATM (unknown origin) assessed as decrease in phosphorylation of ATM at 25 uM measured in presence of 50 nM AZD0156 by Western blot analysis.
Assay [26] deals with NCI-H1299. Description: Additive cytotoxicity against human NCI-H1299 cells assessed as combination index measured in presence of 5 uM KU60019 after 2 days by SRB assay. The format is functional. The following applies: time 2 day.
The test system of assay [27] is MCF7. Description: Antagonistic cytotoxicity against human MCF7 cells in presence of 30 uM 3-Chloro-4-methoxy-N-((4-(oxazolo[4,5-b]pyridin-2-yl)phenyl)carbamothioyl)benzamide measured after 6 days by SRB assay. The format is functional, cell-based. The following applies: MCF7, 144 h.
The test system of assay [28] is MCF7. The experiment in a line: Additive cytotoxicity against human MCF7 cells assessed as combination index measured after 6 days in presence of 5 uM KU55933 by SRB assay. The conditions noted are these: time 6 day. The format is functional.
Assay [29] relates to MCF7. The experiment in a line: Antagonistic cytotoxicity against human MCF7 cells assessed as combination index in presence of 30 uM 3-Chloro-4-methoxy-N-((4-(oxazolo[4,5-b]pyridin-2-yl)phenyl)carbamothioyl)benzamide measured after 6 days by SRB assay. The format is functional. The conditions noted are these: time 6 day.
The test system of assay [30] is NCI-H1299. Description: Antagonistic cytotoxicity against human NCI-H1299 cells assessed as combination index measured in presence of 50 nM AZD0156 after 2 days by SRB assay. The following applies: time 2 day. Format: functional.
In assay [31] the test system is MCF7. Description: Additive cytotoxicity against human MCF7 cells measured after 6 days in presence of 5 uM KU55933 by SRB assay. Format: functional. The following applies: time 6 day.
Assay [32] relates to SW480. Description: Antitumor activity against human SW480 cells xenografted in BALB/c nude mouse assessed as reduction in tumor weight at 20 mg/kg, ip in presence of 30 mg/kg, iv 2(((2-(2,4-dichlorobenzyl)oxy)naphthalen-1-yl)methyl)amino)ethan-1-ol. Format: functional, organism-based.
Assay [33] deals with NCI-H1299. Description: Antagonistic cytotoxicity against human NCI-H1299 cells measured in presence of 50 nM AZD0156 after 2 days by SRB assay. The format is functional, cell-based. The following applies: NCI-H1299, 48 h.
Assay [34] has as its system NCI-H1299. The experiment in a line: Additive cytotoxicity against human NCI-H1299 cells measured in presence of 5 uM KU60019 after 2 days by SRB assay. The format is functional, cell-based. The conditions noted are these: NCI-H1299, 48 h.
For assay [35], the system named is MCF7. The experiment in a line: cells. The conditions noted are these: Homo sapiens, MCF7, 144 h. This is another data set of the same source.
Assay [36] relates to SW480. The experiment in a line: Antitumor activity against human SW480 cells xenografted in BALB/c nude mouse assessed as reduction in tumor weight at 20 mg/kg, ip. Format: functional, organism-based.

T1 sequence (Q13315 whole entry): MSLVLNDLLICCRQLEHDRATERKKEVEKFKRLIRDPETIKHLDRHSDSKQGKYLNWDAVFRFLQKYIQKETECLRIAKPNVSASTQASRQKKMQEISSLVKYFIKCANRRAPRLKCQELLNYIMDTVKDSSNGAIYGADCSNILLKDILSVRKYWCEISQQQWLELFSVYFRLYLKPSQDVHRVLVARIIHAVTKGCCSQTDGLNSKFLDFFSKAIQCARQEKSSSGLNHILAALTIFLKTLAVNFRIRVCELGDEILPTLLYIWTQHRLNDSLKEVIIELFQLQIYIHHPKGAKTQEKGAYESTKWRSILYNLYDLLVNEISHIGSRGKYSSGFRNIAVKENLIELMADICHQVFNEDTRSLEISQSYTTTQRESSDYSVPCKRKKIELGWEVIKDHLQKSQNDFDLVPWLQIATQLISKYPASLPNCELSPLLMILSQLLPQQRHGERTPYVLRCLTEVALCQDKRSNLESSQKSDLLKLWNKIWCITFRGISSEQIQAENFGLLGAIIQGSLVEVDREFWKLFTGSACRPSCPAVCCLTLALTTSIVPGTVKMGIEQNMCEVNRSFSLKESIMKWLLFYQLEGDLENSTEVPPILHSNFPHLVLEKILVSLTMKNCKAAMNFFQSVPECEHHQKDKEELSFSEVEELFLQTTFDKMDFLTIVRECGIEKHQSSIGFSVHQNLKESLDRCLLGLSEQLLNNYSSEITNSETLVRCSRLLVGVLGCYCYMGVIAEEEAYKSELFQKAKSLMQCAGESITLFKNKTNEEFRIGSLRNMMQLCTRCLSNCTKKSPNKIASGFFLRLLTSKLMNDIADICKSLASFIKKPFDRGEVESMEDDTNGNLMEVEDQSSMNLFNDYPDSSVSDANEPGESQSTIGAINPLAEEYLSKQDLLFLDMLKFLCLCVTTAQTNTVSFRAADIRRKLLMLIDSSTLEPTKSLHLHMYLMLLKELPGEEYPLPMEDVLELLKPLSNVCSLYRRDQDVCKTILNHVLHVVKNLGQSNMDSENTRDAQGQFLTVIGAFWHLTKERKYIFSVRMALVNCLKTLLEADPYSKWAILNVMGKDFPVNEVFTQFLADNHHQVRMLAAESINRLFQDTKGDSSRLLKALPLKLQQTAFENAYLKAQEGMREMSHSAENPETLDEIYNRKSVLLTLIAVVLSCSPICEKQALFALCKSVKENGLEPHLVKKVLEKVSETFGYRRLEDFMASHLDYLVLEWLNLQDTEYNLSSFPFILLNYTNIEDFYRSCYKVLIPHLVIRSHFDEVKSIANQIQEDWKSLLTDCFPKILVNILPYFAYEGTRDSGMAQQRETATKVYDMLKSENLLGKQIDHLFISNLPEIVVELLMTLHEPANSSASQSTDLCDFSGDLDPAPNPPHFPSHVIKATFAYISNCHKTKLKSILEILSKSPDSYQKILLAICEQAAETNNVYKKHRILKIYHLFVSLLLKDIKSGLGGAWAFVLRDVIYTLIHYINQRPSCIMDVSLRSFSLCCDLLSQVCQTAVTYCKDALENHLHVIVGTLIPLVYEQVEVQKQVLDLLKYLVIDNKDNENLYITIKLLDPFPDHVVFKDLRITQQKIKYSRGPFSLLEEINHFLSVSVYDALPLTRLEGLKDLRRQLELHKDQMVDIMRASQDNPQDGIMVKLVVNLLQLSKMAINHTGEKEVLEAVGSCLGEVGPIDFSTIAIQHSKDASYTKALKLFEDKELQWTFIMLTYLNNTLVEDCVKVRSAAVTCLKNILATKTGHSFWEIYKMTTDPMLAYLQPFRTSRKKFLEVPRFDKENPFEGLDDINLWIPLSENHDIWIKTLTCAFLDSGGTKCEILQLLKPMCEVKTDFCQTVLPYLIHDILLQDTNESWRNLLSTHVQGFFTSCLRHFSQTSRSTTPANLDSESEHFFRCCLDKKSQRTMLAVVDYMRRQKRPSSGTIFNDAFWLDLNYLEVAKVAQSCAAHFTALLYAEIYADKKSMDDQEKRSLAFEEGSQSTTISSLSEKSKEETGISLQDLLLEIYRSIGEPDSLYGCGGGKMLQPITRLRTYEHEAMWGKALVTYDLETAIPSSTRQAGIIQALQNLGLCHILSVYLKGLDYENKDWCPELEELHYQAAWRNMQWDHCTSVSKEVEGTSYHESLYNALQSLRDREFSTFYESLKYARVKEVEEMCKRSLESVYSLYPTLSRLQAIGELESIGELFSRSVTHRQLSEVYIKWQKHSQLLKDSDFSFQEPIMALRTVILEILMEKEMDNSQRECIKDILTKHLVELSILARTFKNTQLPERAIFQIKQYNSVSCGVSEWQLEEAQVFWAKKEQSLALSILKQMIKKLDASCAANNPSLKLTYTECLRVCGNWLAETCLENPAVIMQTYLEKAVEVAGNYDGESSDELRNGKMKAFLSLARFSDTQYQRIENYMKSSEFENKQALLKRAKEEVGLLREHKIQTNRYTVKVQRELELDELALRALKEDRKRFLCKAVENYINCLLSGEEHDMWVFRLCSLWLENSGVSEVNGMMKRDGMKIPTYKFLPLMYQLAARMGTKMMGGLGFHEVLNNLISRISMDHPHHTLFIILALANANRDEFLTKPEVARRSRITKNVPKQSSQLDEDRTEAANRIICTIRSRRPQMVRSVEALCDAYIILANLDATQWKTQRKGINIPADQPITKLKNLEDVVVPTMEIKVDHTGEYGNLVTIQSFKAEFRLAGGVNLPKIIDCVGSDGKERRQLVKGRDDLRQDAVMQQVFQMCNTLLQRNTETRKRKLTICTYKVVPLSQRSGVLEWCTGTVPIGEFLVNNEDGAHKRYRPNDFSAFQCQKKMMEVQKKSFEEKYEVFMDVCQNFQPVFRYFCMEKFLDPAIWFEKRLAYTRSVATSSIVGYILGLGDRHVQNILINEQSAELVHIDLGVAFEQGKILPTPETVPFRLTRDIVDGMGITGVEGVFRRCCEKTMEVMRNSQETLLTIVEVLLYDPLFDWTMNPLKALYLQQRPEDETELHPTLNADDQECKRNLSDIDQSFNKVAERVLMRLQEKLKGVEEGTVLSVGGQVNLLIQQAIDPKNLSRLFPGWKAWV

Turning to `COc1cc([C@@H]2c3cc4c(cc3[C@@H](O[C@@H]3O[C@@H]5CO[C@@H](C)O[C@H]5[C@H](O)[C@H]3O)[C@H]3COC(=O)[C@H]23)OCO4)cc(OC)c1O` [ETOPOSIDE], the CI in the assay with SW480 [1] is on record as 1.3; in the assay on MCF7 [7] it was 0.73; in the assay with MCF7 [12], 2.8; in the assay on MCF7 [13], 1.01; in the assay on MCF7 [14] it was 0.19; in the assay with NCI-H1299 [17], 0.82. Further, the CI in the assay on NCI-H1299 [22] was found to be 0.84. Also, the pIC50 is 5.24 in the assay on NCI-H1299 [2]; 5.44 with SW480 [3]; 5.44 in the assay on SW480 [9]; 5.05 in the assay on NCI-H1299 [11]; 6.25 with MCF7 [16]; 6.23 in the assay on MCF7 [21]. Moreover, the inhibition entry in [4], in assay [10], in [24] and in assay [25] was “Active” throughout. In addition, the inhibition came to 53% in assay [5], 41% in [8] and 25% in [18]. Moreover, the Activity entry in the assay on MCF7 [6] was “Dde”. For the same compound, the outcome in the assay on MCF7 [15], in the assay with MCF7 [19], in the assay on MCF7 [20] and in the assay on MCF7 [23] was Active.

Take `CCc1c2c(nc3ccc(OC(=O)N4CCC(N5CCCCC5)CC4)cc13)-c1cc3c(c(=O)n1C2)COC(=O)[C@]3(O)CC` [IRINOTECAN]: the CI in the assay on SW480 [1] was 2.4; in the assay on NCI-H1299 [26] it was 1.04; with MCF7 [12] it was 1.3; with MCF7 [28], 0.18; in the assay on MCF7 [14], 0.97; in the assay on MCF7 [29], 1.49. In addition, the CI is given as 1.13 with NCI-H1299 [30] and 0.16 in the assay on MCF7 [31]. The pIC50 in the assay on SW480 [3] was 4.91; with MCF7 [27], 5.62; in the assay on NCI-H1299 [33], 4.82; with NCI-H1299 [34] it was 5.01; in the assay with MCF7 [35], 6.68. Besides, the outcome in the assay with SW480 [32] and in the assay on SW480 [36] was Active.
